Data set [1] is described as follows: O-1602 release of O-1602 derivatives under different pH conditions (HPLC area percentage). The format is physicochemical. To be noted: for completeness of O-1602 release (in words): partial release with degradation into other impurities. As for the experimental part:
Example 1: Experimental on O-1602 Releases of O-1602 Derivatives Under Different pH Conditions
• Chromatographic column: shimnex CS C18 5 μm, 4.6*250 mm • Mobile phase A: 0.1% phosphoric acid in water; mobile phase B: acetonitrile (see Table 1)
Buffer solution (pH 1.6): 32.4 ml of 0.2 mol/L hydrochloric acid was accurately measured, diluted with water to 200 ml, and shaken well.
Phosphate buffer (pH 5.0): a certain amount of 0.2 mol/L sodium dihydrogen phosphate solution was taken and the pH value was adjusted by using 0.2 mol/L sodium hydroxide solution to 5.0.
Phosphate buffer (pH 6.8): a certain amount of 0.2 mol/L sodium dihydrogen phosphate solution was taken and the pH value was adjusted by using 0.2 mol/L sodium hydroxide solution to 6.8.
Phosphate buffer (pH 7.2): a certain amount of 0.2 mol/L sodium dihydrogen phosphate solution was taken and the pH value was adjusted by using 0.2 mol/L sodium hydroxide solution to 7.2.
Phosphate buffer (pH 8.0): a certain amount of 0.2 mol/L sodium dihydrogen phosphate solution was taken and the pH value was adjusted by using 0.2 mol/L sodium hydroxide solution to 8.0.
About 1 mg of O-1602 derivative was placed in a 2 mL centrifuge tube and dissolved by adding 1 mL of acetonitrile. Then 1 mL of buffer solution was added and shaken well. The obtained solution was incubated at 37° C., and sampled for determination respectively after for 2 hours and 4 hours. (The releases of O-1602 were respectively investigated at pH 1.6, pH 5.0, pH 6.8, pH 7.2, and pH 8.0)
Calculations: the content of O-1602 was calculated by area percentage.

Data set [2] deals with CS7BL/6 mice with TNBS-induced acute enteritis. As to the kind of experiment: 2,4,6-trinitrobenzene sulfonic acid (TNBS)-induced acute enteritis in mice. The format is in vivo. To be noted: for weight loss in model animals / disease activity index (DAI) / damage to colon tissue / length of colon: 1 mg/kg, once daily gavage; for weight loss in model animals: day 0 to day 4, FIG. 2; for disease activity index (DAI): day 0 to day 4, FIG. 3; for damage to colon tissue: dissection on day 5, FIG. 5; for length of colon: dissection on day 5, FIGS. 4 and 5; for efficacy compared with tofacitinib: derivative 1 mg/kg versus positive control tofacitinib. As for the experimental part:
CS7BL/6 mice, male, and female, 6 to 10 weeks old were used. On day-7 of the experiment, the experimental animals were weighed, and the mice were randomly divided into cages according to their body weights. The animals were allowed to adapt to the environment of the animal room. The animal room was maintained at a constant temperature (23° C.±3° C.) and constant humidity (50% relative humidity). Animals are fed standard laboratory food and have free access to drinking water. On day 0, mice were induced for TNBS colitis by intrarectal injection. The dosage of TNBS was 125 mg/kg. The solvent was 30% alcohol. Each mouse received a volume of 100 μl. After the rectal injection, the mice were inverted for 1 minute to prevent leakage of the drug solution.
The solid O-1602 derivative was dissolved in DMSO at a concentration of 2 mg/ml. The above solution was diluted to 0.1 mg/ml using PBS. TNBS enteritis mice received once daily gavage in a volume of 200 μl and were dosed daily at 11:00 a. m. The dosage of the O-1602 derivative was 1 mg/kg. The treatment schedule for the O-1602 derivative was from day 0 to day 4 of the TNBS. The mice in the control group were administered with an equal volume of solvent by gavage. At the same time, the anti-colitis drug JAK inhibitor tofacitinib was used as a positive control. The experimental results of O-1602 derivatives in this model experiment were compared. The O-1602 derivatives were dissolved in the above-mentioned way; the concentration was 1.5 mg/mL; the volume of intragastric administration was 200 μL; and the dosage was 15 mg/kg.
Mice were observed daily for body weight and anal bleeding, and the daily disease activity index (DAI) was calculated and recorded.
The experiment was terminated on day 5 of TNBS. Mice were euthanized by cervical amputation under isoflurane anesthesia. The mice were dissected and the whole colon was obtained. The length of the colon was measured and photographed.

The mark [3] stands for this setting: pH 1.6~8.0, 37° C., 2 hours and 4 hours.

The structures appear in SMILES notation.

For `C=C(C)[C@@H]1CCC(C)=C[C@H]1c1c(C)cc(OC(=O)OCCN(CC)CC)cc1OC(=O)OCCN(CC)CC` [Compound 1], the Principal component % is reported as 97.185% in data set [1] (0 h); 96.906% in data set [1] (Buffer (pH 1.6), 37° C., 2 h); 94.115% in data set [1] (Buffer (pH 1.6), 37° C., 4 h); 78.030% in data set [1] (Buffer (pH 5.0), 37° C., 2 h); 24.651% in data set [1] (Buffer (pH 5.0), 37° C., 4 h). Besides, the O-1602% in data set [1] (Buffer (pH 5.0), 37° C., 4 h) turned out to be 0.457%; in data set [1] (Buffer (pH 6.8), 37° C., 2 h), 9.801%; in data set [1] (Buffer (pH 6.8), 37° C., 4 h) it was 20.813%; in data set [1] (Buffer (pH 7.2), 37° C., 2 h), 6.354%; in data set [1] (Buffer (pH 7.2), 37° C., 4 h), 20.172%; in data set [1] (Buffer (pH 8.0), 37° C., 2 h) it was 11.455%. In data set [1] (Buffer (pH 8.0), 37° C., 4 h), this molecule registered an O-1602% of 33.963%. Also, the “release amount of O-1602 (in words)” value in data set [1] (setting [3]) was “relatively high”. Besides, in data set [1] (pH 1.6~8.0, 37° C.), the “completeness of O-1602 release (in words)” value is given as “only partially released”. Moreover, the “weight loss in model animals” value in data set [2] was “significantly alleviated”.
As for `C=C(C)[C@@H]1CCC(C)=C[C@H]1c1c(C)cc(OC(C)=O)cc1OC(C)=O` [Compound 2], the “release amount of O-1602 (in words)” value in data set [1] (setting [3]) is listed as “no O-1602 was released”.
On to `C=C(C)[C@@H]1CCC(C)=C[C@H]1c1c(C)cc(OC(=O)NC(C(=O)O)C(C)C)cc1OC(=O)NC(C(=O)O)C(C)C` (stereo partly shown) [Compound 3], for which, in data set [2], the “weight loss in model animals” value is reported as “significantly alleviated”, the “disease activity index (DAI)” value is on record as “significantly alleviated”, the “damage to colon tissue” value was “reduced” and the length of colon result was “increased”. Moreover, in data set [2], the “efficacy compared with tofacitinib” value is on record as “superior efficacy”.
For the molecule `C=C(C)[C@@H]1CCC(C)=C[C@H]1c1c(C)cc(OC(=O)NCCCCN)cc1O` [Compound 6], in data set [1] (setting [3]), the “release amount of O-1602 (in words)” value was “small amount”. Also, in data set [2], the “weight loss in model animals” value is “significantly alleviated”, the “disease activity index (DAI)” value is given as “significantly alleviated”, the “damage to colon tissue” value was “reduced” and the length of colon entry is “increased”. Also, the “efficacy compared with tofacitinib” value in data set [2] was “superior efficacy”.
As to `C=C(C)[C@@H]1CCC(C)=C[C@H]1c1c(C)cc(OC(=O)C(N)C(C)C)cc1OC(=O)C(N)C(C)C` (stereo partly shown) [Compound 7], the Principal component % in data set [1] (0 h) turned out to be 87.691%; in data set [1] (Buffer (pH 1.6), 37° C., 2 h) it was 79.094%; in data set [1] (Buffer (pH 1.6), 37° C., 4 h), 81.424%; in data set [1] (Buffer (pH 5.0), 37° C., 2 h), 26.693%; in data set [1] (Buffer (pH 5.0), 37° C., 4 h), 8.307%; in data set [1] (Buffer (pH 6.8), 37° C., 2 h), 3.401%. Moreover, the Principal component % in data set [1] (Buffer (pH 6.8), 37° C., 4 h) came to 1.551%. Moreover, the O-1602% in data set [1] (Buffer (pH 5.0), 37° C., 2 h) worked out at 1.088%; in data set [1] (Buffer (pH 5.0), 37° C., 4 h), 3.800%; in data set [1] (Buffer (pH 6.8), 37° C., 2 h), 1.972%; in data set [1] (Buffer (pH 6.8), 37° C., 4 h), 3.518%; in data set [1] (Buffer (pH 7.2), 37° C., 2 h) it was 29.354%; in data set [1] (Buffer (pH 7.2), 37° C., 4 h) it was 19.343%. Further, the O-1602% in data set [1] (Buffer (pH 8.0), 37° C., 2 h) was found to be 11.933%; in data set [1] (Buffer (pH 8.0), 37° C., 4 h), 43.976%. Besides, in data set [1] (setting [3]), the “release amount of O-1602 (in words)” value is given as “relatively high”. Further, the “completeness of O-1602 release (in words)” value in data set [1] (pH 1.6~8.0, 37° C.) is “only partially released”. Moreover, in data set [2], the “weight loss in model animals” value is listed as “significantly alleviated”. Moreover, in data set [2], the “disease activity index (DAI)” value is “significantly alleviated”. Besides, the “damage to colon tissue” value in data set [2] is “reduced”. The length of colon result in data set [2] was “increased”. Further, in data set [2], the “efficacy compared with tofacitinib” value is listed as “superior efficacy”.
On to `C=C(C)[C@@H]1CCC(C)=C[C@H]1c1c(C)cc(OC(=O)N(C)C)cc1OC(=O)N(C)C` [Compound 8], for which, in data set [1] (setting [3]), the “release amount of O-1602 (in words)” value is given as “no O-1602 was released” and the “stability (in words)” value is “good stability”.
For the molecule `C=C(C)[C@@H]1CCC(C)=C[C@H]1c1c(C)cc(OC(=O)NCCN2CCN(C)CC2)cc1OC(=O)NCCN1CCN(C)CC1` [Compound 11], in data set [1] (setting [3]), the “release amount of O-1602 (in words)” value is given as “small amount”. Also, in data set [2], the “disease activity index (DAI)” value is given as “significantly alleviated”, the “damage to colon tissue” value is listed as “reduced”, the length of colon result was “increased” and the “efficacy compared with tofacitinib” value was “superior efficacy”.
On to `C=C(C)[C@@H]1CCC(C)=C[C@H]1c1c(C)cc(OC(=O)CN(C)C)cc1O` [Compound 13], for which the “O-1602 release (in words)” value in data set [1] (acidic buffer solution (pH 1.6), 37° C., 4 hours) is reported as “trace amount”. In addition, the “release amount of O-1602 (in words)” value in data set [1] (setting [3]) is reported as “small amount”.

Values taken from patent US20260193222A1, “COMPOUND AND USE THEREOF IN TREATMENT OF TREG-RELATED DISEASES” (BENETHERA (SHAOXING) BIOTECHNOLOGY CO., LTD., priority 2022, published 2026).
